Consider 14 molecules from ChEMBL document CHEMBL4609988, “Heterocycle amide isosteres: An approach to overcoming resistance for HIV-1 integrase strand transfer inhibitors” (Bioorg Med Chem Lett, 2020).

Structures are written as SMILES.

Data set [1] relates to Human immunodeficiency virus 1. Put plainly: Antiviral activity against HIV1 NL4-3 harboring […]/Q148H mutant by cellular assay. Particulars: Human immunodeficiency virus 1, NL4-3. Format: functional, organism-based.
Data set [2] has as its system Human immunodeficiency virus 1. The data set can be described thus: Antiviral activity against HIV1 NL4-3 by cellular assay. Format: functional, organism-based. As to conditions: Human immunodeficiency virus 1, NL4-3.
For data set [3], the system named is Human immunodeficiency virus 1. The data set can be described thus: Antiviral activity against HIV1 NL4-3 harboring N155H mutant by cellular assay. Format: functional, organism-based. As to conditions: Human immunodeficiency virus 1, NL4-3.
Data set [4] has as its system Human immunodeficiency virus 1. The data set can be described thus: Antiviral activity against HIV1 NL4-3 harboring Q148R mutant by cellular assay. Format: functional, organism-based. Particulars: Human immunodeficiency virus 1, NL4-3.
In data set [5] the test system is Human immunodeficiency virus 1. Put plainly: Ratio of EC50 for antiviral activity against HIV1 NL4-3 harboring G140S/Q148H mutant to EC50 for antiviral activity against HIV1 NL4-3. Format: functional.
For data set [6], the system named is Human immunodeficiency virus 1. The data set can be described thus: Ratio of EC50 for antiviral activity against HIV1 NL4-3 harboring N155H mutant to EC50 for antiviral activity against HIV1 NL4-3. Format: functional.
For data set [7], the system named is Human immunodeficiency virus 1. The data set can be described thus: Ratio of EC50 for antiviral activity against HIV1 NL4-3 harboring Q148R mutant to EC50 for antiviral activity against HIV1 NL4-3. Format: functional.
Data set [8] in a line: Volume of distribution at steady state in rat at 1 mg/kg, iv. Format: ADME, organism-based. Particulars: in vivo, read-out: Vdss.
The nature of data set [9]: AUC in rat at 1 mg/kg, iv. Format: ADME, organism-based. Particulars: in vivo.
Data set [10] is described as follows: Clearance in rat at 1 mg/kg, iv. Format: ADME, organism-based. Particulars: in vivo.
For data set [11], the target named is Human immunodeficiency virus type 1 integrase (Human immunodeficiency virus 1, UniProt Q7ZJM1). Put plainly: Inhibition of HIV-1 integrase strand transfer activity.
Chain of Human immunodeficiency virus type 1 integrase (Q7ZJM1 whole entry): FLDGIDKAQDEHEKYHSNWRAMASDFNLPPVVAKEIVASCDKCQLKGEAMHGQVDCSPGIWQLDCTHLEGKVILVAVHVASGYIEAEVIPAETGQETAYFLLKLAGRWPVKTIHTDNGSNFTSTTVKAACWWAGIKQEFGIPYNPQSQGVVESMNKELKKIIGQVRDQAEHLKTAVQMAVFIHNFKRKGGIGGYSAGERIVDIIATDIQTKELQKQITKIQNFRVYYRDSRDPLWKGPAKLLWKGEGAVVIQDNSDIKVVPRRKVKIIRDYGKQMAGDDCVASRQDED

As to `CC1(C)OCCn2c1nc(C(=O)NCc1ccc(F)cc1)c(O)c2=O`, the EC50 (usually the concentration that produces a half-maximal response) was > 8000 nM in data set [1], 3 nM in [2], 140 nM in data set [3] and 300 nM in data set [4]. Besides, the “Ratio EC50” value is >2666 in data set [5], 47 in data set [6] and 99 in data set [7].

As for `Cn1c(Cc2ccc(F)cc2)cnc1-c1nc2n(c(=O)c1O)CCOC2(C)C`, the EC50 came out at 530 nM in data set [1], 10 nM in data set [2], 36 nM in data set [3] and 61 nM in data set [4]. Also, the Vd in data set [8] stood at 0.5 L/kg. The AUC (as a rule, concentration integrated over time) in data set [9] turned out to be 3.92 µM·h. In addition, the clearance (as a rule, the rate of elimination divided by the concentration) in data set [10] amounted to 11 mL/min/kg.

As for `CC1(C)OCCn2c1nc(-c1nc(Cl)c(Cc3ccc(F)cc3)[nH]1)c(O)c2=O`, the concentration giving a half-maximal response (EC50) in data set [11] was > 64000 nM.

In the case of `CC1(C)OCCn2c1nc(-c1ncn(Cc3ccc(F)cc3)n1)c(O)c2=O`, the concentration giving a half-maximal response (EC50) in data set [1] was determined as 3700 nM; in data set [2], 7 nM; in data set [3], 16 nM; in data set [4], 220 nM. Also, the Vd in [8] worked out at 1.5 L/kg. Further, the “Ratio EC50” value in [5] was determined as 563; in data set [6], 2; in data set [7] it was 34. In [9], the AUC was 0.872 µM·h. In [10], this molecule returned a clearance of 52 mL/min/kg.

Regarding `CC1(C)OCCn2c1nc(-c1ncc(Cc3ccc(F)cc3)s1)c(O)c2=O`, the EC50 was found to be 540 nM in data set [1], 3 nM in data set [2], 34 nM in data set [3] and 91 nM in [4]. Also, the entries for the “Ratio EC50” value in data set [5], in data set [6] and in data set [7] were 177, 11 and 30, respectively.

Regarding `CC1(C)OCCn2c1nc(-c1nnc(Cc3ccc(F)cc3)[nH]1)c(O)c2=O`, the EC50 is > 40000 nM in data set [1], 81 nM in data set [2], 4000 nM in [3] and 1500 nM in data set [4]. For the same molecule, the “Ratio EC50” value is reported as >500 in [5], 49 in data set [6] and 19 in [7].

In the case of `CC1(C)OCCn2c1nc(-c1ncc(Cc3ccc(F)cc3)[nH]1)c(O)c2=O`, the EC50 in data set [1] turned out to be 320 nM; in data set [2] it was 6 nM; in data set [3] it was 2 nM; in [4], 33 nM. Also, the Vd in data set [8] is 0.3 L/kg. Moreover, the “Ratio EC50” value in data set [5] is 54; in data set [6], 0.3; in data set [7] it was 6. Also, the AUC in [9] was found to be 4.55 µM·h. For the same molecule, in [10], the clearance was 10 mL/min/kg.

`Cn1cc(Cc2ccc(F)cc2)nc1-c1nc2n(c(=O)c1O)CCOC2(C)C` displayed an EC50 in data set [11] of 9300 nM.

As for `Cn1c(Cc2ccc(F)cc2)nnc1-c1nc2n(c(=O)c1O)CCOC2(C)C`, the EC50 in [1] is 1100 nM; in [2], 81 nM; in data set [4], 450 nM.

`CC1(C)OCCn2c1nc(-c1ncc(Cc3ccc(F)cc3)o1)c(O)c2=O`: the EC50 in data set [1] was determined as 6900 nM; in data set [2] it was 22 nM; in data set [3] it was 88 nM; in data set [4], 330 nM. Moreover, the “Ratio EC50” value in data set [5] is recorded as 318; in data set [6], 4; in [7], 15.

In the case of `CC1(C)OCCn2c1nc(-c1nnc(Cc3ccc(F)cc3)o1)c(O)c2=O`, the half-maximal effective concentration (EC50) in data set [1] is > 40000 nM; in [2], 390 nM; in [3] it was 1300 nM; in data set [4], 190 nM. Also, the “Ratio EC50” value is on record as >100 in [5], 3 in [6] and 0.5 in [7].

With `CC1(C)OCCn2c1nc(-c1cc(Cc3ccc(F)cc3)[nH]n1)c(O)c2=O`, the EC50 in [1] was 4200 nM; in data set [2], 120 nM; in [3], 260 nM; in [4], 3000 nM. Also, the “Ratio EC50” value came out at 36 in [5], 22 in data set [6] and 26 in data set [7].

In the case of `CC1(C)OCCn2c1nc(-c1cn(Cc3ccc(F)cc3)cn1)c(O)c2=O`, the concentration for a half-maximal effect (EC50) in data set [1] stood at 320 nM; in data set [2], 4 nM; in data set [3], 9 nM; in data set [4], 26 nM. For the same molecule, in data set [8], the Vd was determined as 3.5 L/kg. Also, the “Ratio EC50” value in data set [5] is listed as 80; in data set [6] it was 2; in data set [7], 7. Moreover, the AUC in data set [9] worked out at 0.353 µM·h. This molecule had a clearance in [10] of 127 mL/min/kg.

For `Cc1nc(-c2nc3n(c(=O)c2O)CCOC3(C)C)nn1Cc1ccc(F)cc1`, the EC50 in [11] was > 30000 nM.
